Measured values: US11052092B2, “N-{[2-(piperidin-1-yl)phenyl](phenyl)methyl}-2-(3-oxo-3,4-dihydro-2H-1,4-benzoxazin-7-yl)acetamide derivatives and related compounds as ROR-gamma modulators for treating autoimmune diseases” (Genfit, priority 2017, dated 2021)

What was measured:
[1] = test system: Murine EL-4 lymphoma cell line overexpressing human RORγt; test: IL-17 secretion from EL4 murine lymphoma; format: cell-based; settings: Mus musculus; human RORγt-transfected EL4 cells, PMA (10 ng/mL) and ionomycin (1 μM), 24 h; read-out: IC50, IL-17 secretion inhibition
Experimental: Murine EL-4 lymphoma cell line overexpressing human RORγt was used in this functional assay to assess compound ability to inhibit IL-17 cytokine secretion.
EL-4 cells are maintained in a standard culture medium RPMI supplemented with 10% fetal calf serum, 1% sodium pyruvate, 1% essential amino acids and 1% antibiotics at 37° C. in a humidified atmosphere of 5% CO02 and 95% air. Culture medium was changed every 2 days. EL4 cells were transfected with a plasmid encoding hRORγt (sequence identical to published sequence NM 001001523). […] Briefly, 1 μg of DNA/1 million cells was served to transfect EL-4 cells. Cell/DNA suspension was transferred into certified cuvette and the electroporation of RORγt plasmid was carried out using appropriate Nucleofector® program.
Cells were seeded in 96 well plates at a density of 150000 cells/I well then treated with compounds of this invention at indicated concentrations and incubated for 24 hours at 37° C. in a humidified atmosphere of 5% C02 and 95% air. EL-4 cells were pretreated with test compounds (RORγ modulators) and stimulated with PMA (10 ng/mL) and ionomycin (1 μM final concentration) in the presence of test compound concentrations for additional 24 h at 37° C. in a humidified atmosphere of 5% C02 and 95% air. Subsequently, supernatants were collected (after centrifugation at 300 g for 10 minutes) to determine the concentrations of IL-17 by HTRF (CisBio, France) or ELISA (R&D Systems Europe) according to the manufacturer's protocols.

[2] = biological target: T1, human RORγt (Homo sapiens, UniProt P51449); test: RORE Luciferase/RORγt transactivation assay; format: cell-based; settings: COS-7 cells transfected with human IL-17 promoter luciferase reporter and RORγt plasmid; 20 h with compound; read-out: IC50, RORγt activity inhibition
T1 construct: the full-length cDNA of human RORγt; expressed in transfected cells; host or cells: COS-7 (monkey kidney)
T1 sequence (P51449 1-497 isoform P51449-2): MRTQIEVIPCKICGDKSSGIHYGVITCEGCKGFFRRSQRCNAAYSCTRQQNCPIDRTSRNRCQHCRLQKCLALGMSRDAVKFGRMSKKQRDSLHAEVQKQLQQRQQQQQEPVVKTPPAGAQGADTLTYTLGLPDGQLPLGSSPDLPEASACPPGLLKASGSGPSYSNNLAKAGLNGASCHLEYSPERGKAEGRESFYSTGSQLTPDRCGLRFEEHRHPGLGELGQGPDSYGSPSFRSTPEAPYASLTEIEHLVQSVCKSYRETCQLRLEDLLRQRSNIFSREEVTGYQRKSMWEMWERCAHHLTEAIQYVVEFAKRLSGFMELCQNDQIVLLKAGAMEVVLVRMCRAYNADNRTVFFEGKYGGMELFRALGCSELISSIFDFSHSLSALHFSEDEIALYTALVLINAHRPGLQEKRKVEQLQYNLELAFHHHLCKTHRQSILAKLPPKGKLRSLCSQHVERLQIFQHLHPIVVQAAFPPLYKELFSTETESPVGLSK
Summary of the method: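 COS-7 cells were transiently co-transfected with a human IL-17 promoter (RORE/CNS)–luciferase reporter and a RORγt expression plasmid, then seeded at 10000 cells/well in serum-free, phenol red-free DMEM. Compounds were added at 0.3% DMSO final. Luciferase was read with Steady-Glo, and IC50 and Emax were derived.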

IC50 [1] | IC50 [2] | Compound
0.1 to 1 µM | 0.01 to 0.1 µM | Cc1ccc(C(NC(=O)Cc2ccc3c(c2)CS(=O)(=O)C3)c2ccc(C)o2)c(N2CCCCC2)c1 (stereo not shown) [Cpd. 78, 2-(2,2-dioxo-1,3-dihydro-2-benzothiophen-5-yl)-N-{[4-methyl-2-(piperidin-1-yl)phenyl](5-methylfuran-2-yl)methyl}acetamide]
0.1 to 1 µM | 0.1 to 1 µM | Cc1ccc(C(NC(=O)Cc2ccc3c(c2)C(=NO)C(=O)N3)c2ccc(C)o2)c(N2CCCCC2)c1 (stereo not shown) [Cpd. 42, 2-[3-(hydroxyimino)-2-oxo-2,3-dihydro-1H-indol-5-yl]-N-{[4-methyl-2-(piperidin-1-yl)phenyl](5-methylfuran-2-yl)methyl}acetamide]
0.1 to 1 µM | 0.01 to 0.1 µM | Cc1ccc(C(NC(=O)Cc2ccc3[nH]cc(CCS(C)(=O)=O)c3c2)c2ccc(Cl)o2)c(N2CCCC2)c1 (stereo not shown) [Cpd. 112, N-[(5-chlorofuran-2-yl)[4-methyl-2-(pyrrolidin-1-yl)phenyl]methyl]-2-[3-(2-methanesulfonylethyl)-1H-indol-5-yl]acetamide]
0.1 to 1 µM | 0.01 to 0.1 µM | Cc1ccc(C(NC(=O)Cc2ccc3c(c2)CN(S(C)(=O)=O)C3)c2ccc(Cl)o2)c(N2CCCCC2)c1 (stereo not shown) [Cpd. 79, N-[(5-chlorofuran-2-yl)[4-methyl-2-(piperidin-1-yl)phenyl]methyl]-2-(2-methanesulfonyl-2,3-dihydro-1H-isoindol-5-yl)acetamide]
0.1 to 1 µM | 0.01 to 0.1 µM | Cc1ccc(C(NC(=O)C2(c3ccc4c(c3)CN(S(C)(=O)=O)C4)CC2)c2ccc(C)o2)c(N(C)C)c1 (stereo not shown) [Cpd. 76, N-{[2-(dimethylamino)-4-methylphenyl](5-methylfuran-2-yl)methyl}-1-(2-methanesulfonyl-2,3-dihydro-1H-isoindol-5-yl)cyclopropane-1-carboxamide]
< 0.1 µM | 0.01 to 0.1 µM | Cc1ccc(C(NC(=O)Cc2ccc3[nH]cc(C(=O)CS(C)(=O)=O)c3c2)c2ccc(C)o2)c(N2CCCCC2)c1 (stereo not shown) [Cpd. 103, 2-[3-(2-methanesulfonylacetyl)-1H-indol-5-yl]-N-{[4-methyl-2-(piperidin-1-yl)phenyl](5-methylfuran-2-yl)methyl}acetamide]
< 0.1 µM | 0.01 to 0.1 µM | Cc1ccc(C(NC(=O)Cc2ccc3[nH]cc(C(=O)N4CCOCC4)c3c2)c2ccc(C)o2)c(N2CCCCC2)c1 (stereo not shown) [Cpd. 120, N-{[4-methyl-2-(piperidin-1-yl)phenyl](5-methylfuran-2-yl)methyl}-2-[3-(morpholine-4-carbonyl)-1H-indol-5-yl]acetamide]
< 0.1 µM | 0.01 to 0.1 µM | Cc1ccc(C(NC(=O)Cc2ccc3[nH]cc(CCO)c3c2)c2ccc(C)o2)c(N2CCCCC2)c1 (stereo not shown) [Cpd. 57, 2-[3-(2-hydroxyethyl)-1H-indol-5-yl]-N-{[4-methyl-2-(piperidin-1-yl)phenyl](5-methylfuran-2-yl)methyl}acetamide]
< 0.1 µM | 0.01 to 0.1 µM | Cc1ccc(C(NC(=O)Cc2ccc3[nH]c(N4CCOCC4)nc3c2)c2ccc(C)o2)c(N2CCCCC2)c1 (stereo not shown) [Cpd. 93, N-{[4-methyl-2-(piperidin-1-yl)phenyl](5-methylfuran-2-yl)methyl}-2-[2-(morpholin-4-yl)-1H-1,3-benzodiazol-5-yl]acetamide]
0.1 to 1 µM | 0.01 to 0.1 µM | Cc1ccc(C(NC(=O)Cc2ccc3ccn(C(=O)N4CCOCC4)c3c2)c2ccc(C)o2)c(N2CCCCC2)c1 (stereo not shown) [Cpd. 114, N-{[4-methyl-2-(piperidin-1-yl)phenyl](5-methylfuran-2-yl)methyl}-2-[1-(morpholine-4-carbonyl)-1H-indol-6-yl]acetamide]
0.1 to 1 µM | 0.01 to 0.1 µM | Cc1ccc(C(NC(=O)C2(c3ccc4c(c3)CS(=O)(=O)C4)CC2)c2ccc(Cl)o2)c(C)c1 (stereo not shown) [Cpd. 72, N-[(5-chlorofuran-2-yl)(2,4-dimethylphenyl)methyl]-1-(2,2-dioxo-1,3-dihydro-2-benzothiophen-5-yl)cyclopropane-1-carboxamide]
< 0.1 µM | 0.01 to 0.1 µM | Cc1ccc(C(NC(=O)C2(c3ccc4c(c3)CN(S(C)(=O)=O)C4)CC2)c2ccc(C)o2)c(N2CCCC2)c1 (stereo not shown) [Cpd. 73, 1-(2-methanesulfonyl-2,3-dihydro-1H-isoindol-5-yl)-N-{[4-methyl-2-(pyrrolidin-1-yl)phenyl](5-methylfuran-2-yl)methyl}cyclopropane-1-carboxamide]
0.1 to 1 µM | 0.01 to 0.1 µM | Cc1ccc(C(NC(=O)Cc2ccc3c(c2)C(=NN)C(=O)N3)c2ccc(C)o2)c(N2CCCCC2)c1 (stereo not shown) [Cpd. 37, 2-(3-hydrazinylidene-2-oxo-2,3-dihydro-1H-indol-5-yl)-N-{[4-methyl-2-(piperidin-1-yl)phenyl](5-methylfuran-2-yl)methyl}acetamide]
1 to 10 µM | 0.1 to 1 µM | Cc1ccc(C(NC(=O)Cc2ccc3[nH]cc(C(=O)CS(C)(=O)=O)c3c2)c2ccc(C)o2)c(Br)c1 (stereo not shown) [Cpd. 104, N-[(2-bromo-4-methylphenyl)(5-methylfuran-2-yl)methyl]-2-[3-(2-methanesulfonylacetyl)-1H-indol-5-yl]acetamide]
< 0.1 µM | < 0.01 µM | Cc1ccc(C(NC(=O)C2(c3ccc4c(c3)CC(=O)N4)CC2)c2ccc(C)o2)c(C)c1 (stereo not shown) [Cpd. 61, N-[(2,4-dimethylphenyl)(5-methylfuran-2-yl)methyl]-1-(2-oxo-2,3-dihydro-1H-indol-5-yl)cyclopropane-1-carboxamide]
0.1 to 1 µM | 0.01 to 0.1 µM | CNS(=O)(=O)c1c[nH]c2ccc(CC(=O)NC(c3ccc(C)o3)c3ccc(C)cc3N3CCCCC3)cc12 (stereo not shown) [Cpd. 115, N-{[4-methyl-2-(piperidin-1-yl)phenyl](5-methylfuran-2-yl)methyl}-2-[3-(methylsulfamoyl)-1H-indol-5-yl]acetamide]
< 0.1 µM | 0.01 to 0.1 µM | Cc1ccc(C(NC(=O)Cc2ccc3[nH]cc(CO)c3c2)c2ccc(C)o2)c(N2CCCCC2)c1 (stereo not shown) [Cpd. 58, 2-[3-(hydroxymethyl)-1H-indol-5-yl]-N-{[4-methyl-2-(piperidin-1-yl)phenyl](5-methylfuran-2-yl)methyl}acetamide]
0.1 to 1 µM | 0.01 to 0.1 µM | Cc1ccc(C(NC(=O)C2(c3ccc4c(c3)CN(S(C)(=O)=O)C4)CC2)c2ccc(Cl)o2)c(N2CCCC2)c1 (stereo not shown) [Cpd. 80, N-[(5-chlorofuran-2-yl)[4-methyl-2-(pyrrolidin-1-yl)phenyl]methyl]-1-(2-methanesulfonyl-2,3-dihydro-1H-isoindol-5-yl)cyclopropane-1-carboxamide]
0.1 to 1 µM | 0.1 to 1 µM | Cc1ccc(C(NC(=O)Cc2ccc3c(c2)OCC(=O)N3)c2ccc(C)o2)c(C)c1 (stereo not shown) [Cpd. 33, N-[(2,4-dimethylphenyl)(5-methylfuran-2-yl)methyl]-2-(3-oxo-3,4-dihydro-2H-1,4-benzoxazin-7-yl)acetamide]
0.1 to 1 µM | 0.01 to 0.1 µM | Cc1ccc(C(NC(=O)Cc2ccc3c(c2)CC(=O)N3)c2ccc(Cl)o2)c(N2CCCCC2)c1 (stereo not shown) [Cpd. 83, N-[(5-chlorofuran-2-yl)[4-methyl-2-(piperidin-1-yl)phenyl]methyl]-2-(2-oxo-2,3-dihydro-1H-indol-5-yl)acetamide]
< 0.1 µM | 0.01 to 0.1 µM | Cc1ccc(C(NC(=O)Cc2ccc3c(c2)CN(S(C)(=O)=O)C3)c2ccc(C)o2)c(N2CCCCC2)c1 (stereo not shown) [Cpd. 41, 2-(2-methanesulfonyl-2,3-dihydro-1H-isoindol-5-yl)-N-{[4-methyl-2-(piperidin-1-yl)phenyl](5-methylfuran-2-yl)methyl}acetamide]
0.1 to 1 µM | – | Cc1ccc(C(NC(=O)Cc2ccc3c(c2)/C(=N/N)C(=O)N3)c2ccc(C)o2)c(N2CCCCC2)c1 (stereo not shown) [Cpd. 84, 2-[(3Z)-3-hydrazinylidene-2-oxo-2,3-dihydro-1H-indol-5-yl]-N-{[4-methyl-2-(piperidin-1-yl)phenyl](5-methylfuran-2-yl)methyl}acetamide]
